Reference: patent publication US20230286929A1, “AROMATIC BRIDGED RING AMIDE DERIVATIVES FOR THE TREATMENT AND PROPHYLAXIS OF HEPATITIS B VIRUS INFECTION” (Hoffmann-La Roche Inc., priority 2020, published 2023)
pIC50: −log10 of the molar value.

What was measured:
Type in all cases: cell-based
HBsAg = test: PHH HBV natural infection assay, HBsAg (alphalisa); conditions: Hepatitis B virus, Hepatocyte, 72 h, read-out: HBsAg IC50
Experimental: (§1) Detailed procedures regarding primary human hepatocyte (PHH) HBV natural infection assay are described as below. One tube of frozen PHH (10 million cells) is thawed in 37° C. water bath and then transferred to 20 mL of PHH thawing medium (Sigma, InVitroGRO HT Medium, Cat. S03319) with gently mixing. The cells were then centrifuged at […] for 5 min, the supernatant was discarded and the tube was refilled with 25 mL of PHH plating medium (Sigma, InVitroGRO CP Medium, Cat. 503317). The tube was shaken very gently to re-suspend all cells. 50 μl of cells were transferred to each well 384-well collagen I coated plate with appropriate liquid handling equipment, e.g. Integra VIAFLO384 or Agilent Bravo. The cells were then cultured for 24 hours in a cell incubator. For HBV infection, after PHH attachment on the culture plate, the plating medium was removed and replenished with PHH culture medium containing HBV virus. The PHH culture medium was prepared with Dulbecco's Modified Eagle Medium (DMEM)/F12 (1:1 in volume ratio) containing 10% fetal bovine serum (Gibco, Cat. 10099141), […] (Gibco, Cat. PHG03I1L), 20 ng/mL dexamethasone (Sigma, Cat. D4902-100 mg), 250 ng/mL human recombinant insulin (Gibco, Cat. 41400045) and 100 U/mL penicillin. HBV virus at 200 genome equivalent (GE) per cell with 4% PEG8000 (Sigma, Cat. P1458) containing culture medium were added to the PHH culture medium for infection. The cells were then cultured for 24 hours in cell incubator. Then the cell culture supernatant was removed. The HBV-infected PHH were cultured with sandwich culture method with PHH culture medium containing 1% DMSO and 0.25 mg/mL matrix gel for 72 hours. The supernatant was then refreshed with PHH culture medium containing different concentrations of testing compounds for two times with 72-hour interval. At the end of treatment, the supernatant was collected for viral markers measurements, including HBsAg, HBeAg, HBV DNA and cytotoxicity. HBsAg and HBeAg were detected using alphalisa method using their specific antibodies. For HBV DNA detection, HBV DNA Quantitative Fluorescence Diagnostic Kit (Sansure Biotech Inc.) was used following the manufacture's protocol. Cytotoxicity was determined using Cell Counting Kit-8 (CCK8, Dojindo Molecular Technologies, Inc.).
(§2) The compounds of the present invention were tested for their capacity to inhibit HBsAg and HBeAg as described herein.

HBeAg = test: PHH HBV natural infection assay, HBeAg (alphalisa); conditions: Hepatitis B virus, Hepatocyte, 72 h, read-out: HbeAg IC50
Experimental: as §1, §2

[1] = Cytotoxicity in PHH natural infection assay (Cell Counting Kit-8); conditions: HBV-infected primary human hepatocytes, CCK8
Experimental: as §1

SMILES | pIC50 (HBsAg) | pIC50 (HBeAg) | CC50 at 144 h [1] [µM]
CS(=O)(=O)c1ccc(C(=O)NC23CC(c4nc5cc(Cl)ccc5o4)(C2)C3)o1 [Example 1, N-[3-(5-chloro-1,3-benzoxazol-2-yl)-1-bicyclo[1.1.1]pentanyl]-5-methylsulfonyl-furan-2-carboxamide] | 5.66 | 5.75 | > 100
C[S+]([O-])c1ccc(C(=O)NC23CC(c4nc5cc(Cl)ccc5o4)(C2)C3)o1 (stereo not drawn) [Example 2, N-[3-(5-chloro-1,3-benzoxazol-2-yl)-1-bicyclo[1.1.1]pentanyl]-5-methylsulfinyl-furan-2-carboxamide] | 5.19 | 5.67 | > 100
C[S@+]([O-])c1ccc(C(=O)NC23CC(c4nc5cc(Cl)ccc5o4)(C2)C3)o1 [Example 2-a, N-[3-(5-chloro-1,3-benzoxazol-2-yl)-1-bicyclo[1.1.1]pentanyl]-5-[(S)-methylsulfinyl]furan-2-carboxamide] | 5.62 | 5.92 | > 100
C[S@@+]([O-])c1ccc(C(=O)NC23CC(c4nc5cc(Cl)ccc5o4)(C2)C3)o1 [Example 2-b, N-[3-(5-chloro-1,3-benzoxazol-2-yl)-1-bicyclo[1.1.1]pentanyl]-5-[(R)-methylsulfinyl]furan-2-carboxamide] | 5.44 | 5.72 | > 100
CSc1ccc(C(=O)NC23CC(c4nc5cc(Cl)ccc5o4)(C2)C3)o1 [Example 3, N-[3-(5-chloro-1,3-benzoxazol-2-yl)-1-bicyclo[1.1.1]pentanyl]-5-methylsulfanyl-furan-2-carboxamide] | 5.09 | 5.42 | > 100
O=C(NC12CC(c3nc4cc(Cl)ccc4o3)(C1)C2)c1ccc([S+]([O-])C2CC2)o1 (stereo not drawn) [Example 4, N-[3-(5-chloro-1,3-benzoxazol-2-yl)-1-bicyclo[1.1.1]pentanyl]-5-cyclopropylsulfinyl-furan-2-carboxamide] | 5.55 | 5.88 | 80
O=C(NC12CC(c3nc4cc(Cl)ccc4o3)(C1)C2)c1ccc(S(=O)(=O)C2CC2)o1 [Example 5, N-[3-(5-chloro-1,3-benzoxazol-2-yl)-1-bicyclo[1.1.1]pentanyl]-5-cyclopropylsulfonyl-furan-2-carboxamide] | 6.16 | 6.12 | > 100
O=C(NC12CC(c3nc4cc(Cl)ccc4o3)(C1)C2)c1ccc([S+]([O-])CC2CC2)o1 (stereo not drawn) [Example 6, N-[3-(5-chloro-1,3-benzoxazol-2-yl)-1-bicyclo[1.1.1]pentanyl]-5-(cyclopropylmethylsulfinyl)furan-2-carboxamide] | 5.69 | 5.86 | > 100
O=C(NC12CC(c3nc4cc(Cl)ccc4o3)(C1)C2)c1ccc(S(=O)(=O)CC2CC2)o1 [Example 7, N-[3-(5-chloro-1,3-benzoxazol-2-yl)-1-bicyclo[1.1.1]pentanyl]-5-(cyclopropylmethylsulfonyl)furan-2-carboxamide] | 5.88 | 5.92 | 73.1
O=C(NC12CC(c3nc4cc(Cl)ccc4o3)(C1)C2)c1ccc(Br)o1 [Example 8, 5-bromo-N-[3-(5-chloro-1,3-benzoxazol-2-yl)-1-bicyclo[1.1.1]pentanyl]furan-2-carboxamide] | 5.04 | 4.83 | > 100
CS(=O)(=O)c1ccc(C(=O)NC23CC(c4nc5cc(Cl)ccc5o4)(C2)C3)s1 [Example 9, N-[3-(5-chloro-1,3-benzoxazol-2-yl)-1-bicyclo[1.1.1]pentanyl]-5-methylsulfonyl-thiophene-2-carboxamide] | 5.02 | 5.27 | > 100
NS(=O)(=O)c1ccc(C(=O)NC23CC(c4nc5cc(Cl)ccc5o4)(C2)C3)o1 [Example 10, N-[3-(5-chloro-1,3-benzoxazol-2-yl)-1-bicyclo[1.1.1]pentanyl]-5-sulfamoyl-furan-2-carboxamide] | 5.35 | 5.57 | > 100
N=S(=O)(c1ccc(C(=O)NC23CC(c4nc5cc(Cl)ccc5o4)(C2)C3)o1)C1CC1 (stereo not drawn) [Example 11, N-[3-(5-chloro-1,3-benzoxazol-2-yl)-1-bicyclo[1.1.1]pentanyl]-5-(cyclopropylsulfonimidoyl)furan-2-carboxamide] | 6.08 | 6.23 | > 100
CS(=N)(=O)c1ccc(C(=O)NC23CC(c4nc5cc(Cl)ccc5o4)(C2)C3)o1 (stereo not drawn) [Example 12, N-[3-(5-chloro-1,3-benzoxazol-2-yl)-1-bicyclo[1.1.1]pentanyl]-5-(methylsulfonimidoyl)furan-2-carboxamide] | 5.82 | 6.05 | > 100
C[S@@](=N)(=O)c1ccc(C(=O)NC23CC(c4nc5cc(Cl)ccc5o4)(C2)C3)o1 [Example 12-a, N-[3-(5-chloro-1,3-benzoxazol-2-yl)-1-bicyclo[1.1.1]pentanyl]-5-[(R)-methylsulfonimidoyl]furan-2-carboxamide] | 5.65 | 5.88 | > 100
C[S@](=N)(=O)c1ccc(C(=O)NC23CC(c4nc5cc(Cl)ccc5o4)(C2)C3)o1 [Example 12-b, N-[3-(5-chloro-1,3-benzoxazol-2-yl)-1-bicyclo[1.1.1]pentanyl]-5-[(S)-methylsulfonimidoyl]furan-2-carboxamide] | 5.66 | 5.99 | > 100
N=S(=O)(CC1CC1)c1ccc(C(=O)NC23CC(c4nc5cc(Cl)ccc5o4)(C2)C3)o1 (stereo not drawn) [Example 13, N-[3-(5-chloro-1,3-benzoxazol-2-yl)-1-bicyclo[1.1.1]pentanyl]-5-(cyclopropylmethylsulfonimidoyl)furan-2-carboxamide] | 6.02 | 6.00 | > 100
O=C(NC12CC(c3nc4cc(Cl)ccc4o3)(C1)C2)c1ccc(S(=O)(=O)CC2COC2)o1 [Example 14, N-[3-(5-chloro-1,3-benzoxazol-2-yl)-1-bicyclo[1.1.1]pentanyl]-5-(oxetan-3-ylmethylsulfonyl)furan-2-carboxamide] | 5.29 | 5.45 | 95.7
N=S(=O)(CC1COC1)c1ccc(C(=O)NC23CC(c4nc5cc(Cl)ccc5o4)(C2)C3)o1 (stereo not drawn) [Example 15, N-[3-(5-chloro-1,3-benzoxazol-2-yl)-1-bicyclo[1.1.1]pentanyl]-5-(oxetan-3-ylmethylsulfonimidoyl)furan-2-carboxamide] | 5.32 | 5.48 | > 100
CS(=O)(=O)Cc1ccc(C(=O)NC23CC(c4nc5cc(Cl)ccc5o4)(C2)C3)o1 [Example 16, N-[3-(5-chloro-1,3-benzoxazol-2-yl)-1-bicyclo[1.1.1]pentanyl]-5-(methylsulfonylmethyl)furan-2-carboxamide] | 6.18 | 6.24 | > 100
CS(=N)(=O)Cc1ccc(C(=O)NC23CC(c4nc5cc(Cl)ccc5o4)(C2)C3)o1 (stereo not drawn) [Example 17, N-[3-(5-chloro-1,3-benzoxazol-2-yl)-1-bicyclo[1.1.1]pentanyl]-5-[(methylsulfonimidoyl)methyl]furan-2-carboxamide] | 5.49 | 5.66 | > 100
NS(=O)(=O)Cc1ccc(C(=O)NC23CC(c4nc5cc(Cl)ccc5o4)(C2)C3)o1 [Example 18, N-[3-(5-chloro-1,3-benzoxazol-2-yl)-1-bicyclo[1.1.1]pentanyl]-5-(sulfamoylmethyl)furan-2-carboxamide] | 5.30 | 5.43 | > 100
O=C(NC12CC(c3nc4cc(Cl)ccc4o3)(C1)C2)c1cccc(Br)c1 [Example 19, 3-bromo-N-[3-(5-chloro-1,3-benzoxazol-2-yl)-1-bicyclo[1.1.1]pentanyl]benzamide] | 5.58 | 5.49 | > 100
O=C(NC12CC(c3nc4cc(Cl)ccc4o3)(C1)C2)c1ccc(Br)cc1 [Example 20, 4-bromo-N-[3-(5-chloro-1,3-benzoxazol-2-yl)-1-bicyclo[1.1.1]pentanyl]benzamide] | 5.37 | 5.14 | > 100
CSc1cccc(C(=O)NC23CC(c4nc5cc(Cl)ccc5o4)(C2)C3)c1 [Example 21, N-[3-(5-chloro-1,3-benzoxazol-2-yl)-1-bicyclo[1.1.1]pentanyl]-3-methylsulfanyl-benzamide] | 5.59 | 5.73 | > 100
